System: P. aeruginosa
Assay: MIC, broth microdilution, CDC/FDA Antibiotic Resistance Isolate Bank (Example 7, Tables 10, 15)
Format: cell-based
[1] = 26 metallo-carbapenemase-producing P. aeruginosa strains, β-lactamase inhibitor µg/mL in parentheses
[2] = 96 strains of P. aeruginosa, β-lactamase inhibitor µg/mL in parentheses

Substance: colistin
- MIC against 26 metallo-carbapenemase-producing strains MIC50 [1]: 1 µg(mL)
- MIC against 26 metallo-carbapenemase-producing strains MIC80 [1]: 1 µg(mL)
- MIC against 26 metallo-carbapenemase-producing strains MIC90 [1]: 1 µg(mL)
- MIC against 26 metallo-carbapenemase-producing strains MICrange [1]: 0.5 - 2 µg(mL)
- MIC against 96 strains of P. aeruginosa MIC50 [2]: 1 µg(mL)
- MIC against 96 strains of P. aeruginosa MIC80 [2]: 1 µg(mL)
- MIC against 96 strains of P. aeruginosa MIC90 [2]: 1 µg(mL)
- MIC against 96 strains of P. aeruginosa MICrange [2]: 0.25 - 2 µg(mL)
- MIC (P. aeruginosa KUB No. 579, AR Bank # 447): 1 µg/mL
- MIC (P. aeruginosa KUB No. 5083, AR Bank # 250): 1 µg/mL
- MIC (P. aeruginosa KUB No. 5551, AR Bank # 54): 2 µg/mL
- MIC (P. aeruginosa KUB No. 5561, AR Bank # 64): 1 µg/mL
- MIC (P. aeruginosa KUB No. 5587, AR Bank # 90): 1 µg/mL
- MIC (P. aeruginosa KUB No. 5589, AR Bank # 92): 1 µg/mL
- MIC (P. aeruginosa KUB No. 5591, AR Bank # 94): 1 µg/mL
- MIC (P. aeruginosa KUB No. 5592, AR Bank # 95): 1 µg/mL
- MIC (P. aeruginosa KUB No. 5597, AR Bank # 100): 1 µg/mL
- MIC (P. aeruginosa KUB No. 5600, AR Bank # 103): 1 µg/mL
- MIC (P. aeruginosa KUB No. 5602, AR Bank # 105): 1 µg/mL
- MIC (P. aeruginosa KUB No. 5605, AR Bank # 108): 1 µg/mL
- MIC (P. aeruginosa KUB No. 5607, AR Bank # 110): 1 µg/mL
- MIC (P. aeruginosa KUB No. 5608, AR Bank # 111): 1 µg/mL
- MIC (P. aeruginosa KUB No. 5662, AR Bank # 229): 1 µg/mL
- MIC (P. aeruginosa KUB No. 5663, AR Bank # 230): 1 µg/mL
- MIC (P. aeruginosa KUB No. 5664, AR Bank # 231): 1 µg/mL
- MIC (P. aeruginosa KUB No. 5665, AR Bank # 232): 1 µg/mL
- MIC (P. aeruginosa KUB No. 5666, AR Bank # 23): 1 µg/mL
- MIC (P. aeruginosa KUB No. 5667, AR Bank # 234): 1 µg/mL
- MIC (P. aeruginosa KUB No. 5668, AR Bank # 235): 0.5 µg/mL
- MIC (P. aeruginosa KUB No. 5669, AR Bank # 236): 1 µg/mL
- MIC (P. aeruginosa KUB No. 5670, AR Bank # 237): 0.5 µg/mL
- MIC (P. aeruginosa KUB No. 5671, AR Bank # 238): 1 µg/mL
- MIC (P. aeruginosa KUB No. 5672, AR Bank # 239): 1 µg/mL
- MIC (P. aeruginosa KUB No. 5673, AR Bank # 240): 1 µg/mL
- MIC (P. aeruginosa KUB No. 5674, AR Bank # 241): 1 µg/mL
- MIC (P. aeruginosa KUB No. 5675, AR Bank # 242): 0.5 µg/mL
- MIC (P. aeruginosa KUB No. 5676, AR Bank # 243): 1 µg/mL
- MIC (P. aeruginosa KUB No. 5677, AR Bank # 244): 1 µg/mL
- MIC (P. aeruginosa KUB No. 5678, AR Bank # 245): 1 µg/mL
- MIC (P. aeruginosa KUB No. 5679, AR Bank # 246): 0.5 µg/mL
- MIC (P. aeruginosa KUB No. 5680, AR Bank # 247): 0.5 µg/mL
- MIC (P. aeruginosa KUB No. 5681, AR Bank # 248): 1 µg/mL
- MIC (P. aeruginosa KUB No. 5682, AR Bank # 249): 0.5 µg/mL
- MIC (P. aeruginosa KUB No. 5684, AR Bank # 251): 0.5 µg/mL
- MIC (P. aeruginosa KUB No. 5685, AR Bank # 252): 1 µg/mL
- MIC (P. aeruginosa KUB No. 5686, AR Bank # 253): 1 µg/mL
- MIC (P. aeruginosa KUB No. 5687, AR Bank # 254): 1 µg/mL
- MIC (P. aeruginosa KUB No. 5688, AR Bank # 255): 1 µg/mL
- MIC (P. aeruginosa KUB No. 5689, AR Bank # 256): 0.5 µg/mL
- MIC (P. aeruginosa KUB No. 5690, AR Bank # 257): 1 µg/mL
- MIC (P. aeruginosa KUB No. 5691, AR Bank # 258): 0.5 µg/mL
- MIC (P. aeruginosa KUB No. 5692, AR Bank # 259): 1 µg/mL
- MIC (P. aeruginosa KUB No. 5693, AR Bank # 260): 1 µg/mL
- MIC (P. aeruginosa KUB No. 5694, AR Bank # 261): 1 µg/mL
- MIC (P. aeruginosa KUB No. 5695, AR Bank # 262): 1 µg/mL
- MIC (P. aeruginosa KUB No. 5696, AR Bank # 263): 0.5 µg/mL
- MIC (P. aeruginosa KUB No. 5697, AR Bank # 264): 1 µg/mL
- MIC (P. aeruginosa KUB No. 5698, AR Bank # 265): 1 µg/mL
- MIC (P. aeruginosa KUB No. 5699, AR Bank # 266): 1 µg/mL
- MIC (P. aeruginosa KUB No. 5700, AR Bank # 267): 1 µg/mL
- MIC (P. aeruginosa KUB No. 5701, AR Bank # 268): 1 µg/mL
- MIC (P. aeruginosa KUB No. 5702, AR Bank # 269): 1 µg/mL
- MIC (P. aeruginosa KUB No. 5703, AR Bank # 270): 1 µg/mL
- MIC (P. aeruginosa KUB No. 5704, AR Bank # 271): 1 µg/mL
- MIC (P. aeruginosa KUB No. 5705, AR Bank # 272): 1 µg/mL
- MIC (P. aeruginosa KUB No. 5747, AR Bank # 351): 1 µg/mL
- MIC (P. aeruginosa KUB No. 5748, AR Bank # 352): 0.5 µg/mL
- MIC (P. aeruginosa KUB No. 5749, AR Bank # 353): 0.5 µg/mL
- MIC (P. aeruginosa KUB No. 5750, AR Bank # 354): 1 µg/mL
- MIC (P. aeruginosa KUB No. 5751, AR Bank # 355): 1 µg/mL
- MIC (P. aeruginosa KUB No. 5752, AR Bank # 356): 0.5 µg/mL
- MIC (P. aeruginosa KUB No. 5753, AR Bank # 357): 1 µg/mL
- MIC (P. aeruginosa KUB No. 5754, AR Bank # 358): 1 µg/mL
- MIC (P. aeruginosa KUB No. 5755, AR Bank # 359): 1 µg/mL
- MIC (P. aeruginosa KUB No. 5756, AR Bank # 360): 1 µg/mL
- MIC (P. aeruginosa KUB No. 5785, AR Bank # 439): 0.5 µg/mL
- MIC (P. aeruginosa KUB No. 5786, AR Bank # 440): 1 µg/mL
